Experimental data: paper PMC8664216 (PLoS Neglected Tropical Diseases, 2021)

Key:
[1] = test system: Huh7 cells; conditions: cited from earlier work
[2] = test system: CHIKV-LR trans-replicase system; assay: CHIKV trans-replicase system, tomato marker by flow cytometry; assay type: cell-based, Chikungunya virus; conditions: for Percentage of fluorescent tomato marker expressing cells / Reduction of marker expressing cells compared to EtOH control: Huh7 cells; for Percentage of fluorescent tomato marker expressing cells: read at 24 h, EtOH control 8.18±0.45%
[3] = test system: CD98; assay: Western blot of CD98 in mock- or CHIKV-infected Huh7 cells; assay type: cell-based, human; conditions: 10 μM tomatidine, 9 hpi
[4] = test system: TMX2; assay: Western blot of TMX2 in mock- or CHIKV-infected Huh7 cells; assay type: cell-based, human; conditions: 10 μM tomatidine, 9 hpi
[5] = test system: CHIKV in vitro transcribed RNA (CHIK-LR); assay: Virus cell entry-bypass assay: electroporation of in vitro transcribed CHIKV RNA, plaque assay; assay type: cell-based, Chikungunya virus; conditions: Huh7 cells electroporated with CHIKV RNA, 10 μM tomatidine, 16 h post-transfection
[6] = test system: CHIKV-LR; assay: Time-trace and time-chase: intracellular CHIKV RNA copies by Q-RT-PCR; assay type: cell-based, Chikungunya virus; conditions: Huh7 cells; for Intracellular viral RNA load: MOI 10, 10 μM tomatidine at time of infection; for Reduction of intracellular RNA load compared to EtOH control: MOI 10, 10 μM tomatidine
[7] = test system: DENV-2; conditions: DENV-2, in vitro; cited from earlier work
[8] = test system: CHIKV-LR; conditions: in vitro; cited from earlier work
[9] = test system: p62; assay: Western blot of p62 in mock- or CHIKV-infected Huh7 cells; assay type: cell-based, human; conditions: 10 μM tomatidine, 9 hpi
[10] = test system: CHIKV-LR; assay: Infectious particle production (plaque assay) in siRNA knockdown Huh7 cells; assay type: cell-based, Chikungunya virus; conditions: CHIKV MOI 10, 10 μM tomatidine, 9 hpi
[11] = test system: CHIKV-LR; assay: Western blot of CHIKV nsP2, E1 and capsid proteins; assay type: cell-based, Chikungunya virus; conditions: 9 hpi
[12] = test system: Huh7 cells; assay: ATPLite cytotoxicity assay; conditions: 7 μM ivermectin, 24 h
[13] = CHIKV-infected (MOI 10) Huh7 cells
[14] = Huh7, MOI 10, 10 μM tomatidine added at 4 hpi
[15] = Huh7, MOI 10, 10 μM tomatidine added at 6 hpi
[16] = Huh7, MOI 10, 10 μM tomatidine added simultaneous to infection

C[C@H]1CC[C@]2(NC1)O[C@H]1C[C@H]3[C@@H]4CC[C@H]5C[C@@H](O)CC[C@]5(C)[C@H]4CC[C@]3(C)[C@H]1[C@@H]2C [tomatidine, Tomatidine]
Highest non-toxic yet antiviral dose [1]: 10 µM | Percentage of fluorescent tomato marker expressing cells ([2]; 10 μM tomatidine added 1 h post-transfection): 4.4±0.69% | Reduction of marker expressing cells compared to EtOH control ([2]; 10 μM tomatidine, 24 h post-transfection): 46% | Increase of CD98 expression compared to solvent control [3, 13]: 1.4 fold | Increase of CD98 expression compared to solvent control ([3]; mock-infected Huh7 cells): 1.6 fold | Change in protein expression of TMX2 [4]: did not induce any significant change | Reduction of virus titer [5]: 2.6 log | Infectious virus titer ([5]; EtOH control 5.0±0.1): 2.4±0.3 Log10 PFU/mL | Intracellular viral RNA load ([6]; 1 and 2 hpi (all experimental conditions)): ~ 7 Log10 copies | Intracellular viral RNA load ([6]; 4 hpi, EtOH 8.0±0.2): 7.8±0.1 Log10 copies | Intracellular viral RNA load ([6]; 6 hpi, EtOH 9.7±0.1): 9.2±0.1 Log10 copies | Intracellular viral RNA load ([6]; 8 hpi, EtOH 10.3±0.0): 9.9±0.1 Log10 copies | Reduction of intracellular RNA load compared to EtOH control ([6]; 6 hpi): 74% | Reduction of intracellular RNA load compared to EtOH control ([6]; 8 hpi): 62% | Intracellular viral RNA copy number vs absence of tomatidine (time-chase) ([6]; MOI 10, tomatidine added at 6 hpi, RNA at 8 and 10 hpi, without tomatidine 10.3±0.0 and 10.6±0.0 Log10): Comparable results | EC50 [7]: 0.82 µM | EC50 [8]: 1.3 µM | Increase of p62 expression compared to solvent control [9, 13]: 1.8 fold | Increase of p62 expression compared to solvent control ([9]; mock-infected Huh7 cells): 1.7 fold | Inhibition of infectious particle production compared to EtOH control ([10]; Huh7 cells with CD98 siRNA knock-down): 91.68% | Inhibition of infectious particle production compared to EtOH control ([10]; Huh7 cells with p62 knock-down (siRNA #1)): 86.37% | Inhibition of infectious particle production compared to EtOH control ([10]; Huh7 cells with p62 knock-down (siRNA #4)): 90.82% | C (capsid) expression compared to EtOH control [11, 14]: 50% | E1 expression compared to EtOH control [11, 14]: 30% | nsP2 expression compared to EtOH control [11, 14]: 50% | C (capsid) expression compared to EtOH control [11, 15]: 60% | E1 expression compared to EtOH control [11, 15]: 40% | nsP2 expression compared to EtOH control [11, 15]: 60% | C (capsid) expression compared to EtOH control [11, 16]: 46% | E1 expression compared to EtOH control [11, 16]: 18% | nsP2 expression compared to EtOH control [11, 16]: 50%

ivermectin
Percentage of fluorescent tomato marker expressing cells ([2]; 7 μM ivermectin added 1 h post-transfection): 2.19±0.5% | Reduction of marker expressing cells compared to EtOH control ([2]; 7 μM ivermectin, 24 h post-transfection): 73% | MFI of tomato marker relative to EtOH control ([2]; marker-positive Huh7 cells, 7 μM ivermectin, 24 h post-transfection): 0.4±0.06 | Cytotoxicity of the selected concentration [12]: non-toxic
